# Measured values taken from ChEMBL document CHEMBL4049399, “Novel pyrrolopyrimidines as Mps1/TTK kinase inhibitors for breast cancer” (Bioorg Med Chem, 2017).
# Calls of active or inactive are those of the source. No cut-off for these calls is given here.
# Key:
# MDA-MB-231 = experiment: Antiproliferative activity against human MDA-MB-231 cells assessed as reduction in cell viability after 5 to 7 days by CellTiter 96 aqueous solution assay; assay type: functional, cell-based
# Hs-578T = experiment: Antiproliferative activity against human Hs578T cells assessed as reduction in cell viability after 5 to 7 days by CellTiter 96 aqueous solution assay; assay type: functional, cell-based
# SK-BR-3 = experiment: Antiproliferative activity against human SK-BR-3 cells assessed as reduction in cell viability after 5 to 7 days by CellTiter 96 aqueous solution assay; assay type: functional, cell-based
# [1] = Elimination half-life in ICR mouse at 20 mg/kg, iv by LC-MS/MS analysis; assay type: ADME, organism-based; conditions: in vivo, read-out: beta t1/2 (converted)
# Mus musculus [2] = experiment: Toxicity in athymic nude mouse assessed as body weight at 10 mg/kg, ip measured immediately (reference value: 20 to 26 g); assay type: organism-based; conditions: in vivo
# [3] = molecular target: T1, Dual specificity protein kinase TTK (Homo sapiens) (UniProt P33981); experiment: Inhibition of Mps1/TTK in human CAL51 cells assessed as reduction in centriole assembly during S-phase by measuring increase in BrdU positive cells with two centrioles incubated for 24 hrs followed by BrdU incorporation during last 4 hrs of incubation; assay type: cell-based
# T1 sequence (whole entry): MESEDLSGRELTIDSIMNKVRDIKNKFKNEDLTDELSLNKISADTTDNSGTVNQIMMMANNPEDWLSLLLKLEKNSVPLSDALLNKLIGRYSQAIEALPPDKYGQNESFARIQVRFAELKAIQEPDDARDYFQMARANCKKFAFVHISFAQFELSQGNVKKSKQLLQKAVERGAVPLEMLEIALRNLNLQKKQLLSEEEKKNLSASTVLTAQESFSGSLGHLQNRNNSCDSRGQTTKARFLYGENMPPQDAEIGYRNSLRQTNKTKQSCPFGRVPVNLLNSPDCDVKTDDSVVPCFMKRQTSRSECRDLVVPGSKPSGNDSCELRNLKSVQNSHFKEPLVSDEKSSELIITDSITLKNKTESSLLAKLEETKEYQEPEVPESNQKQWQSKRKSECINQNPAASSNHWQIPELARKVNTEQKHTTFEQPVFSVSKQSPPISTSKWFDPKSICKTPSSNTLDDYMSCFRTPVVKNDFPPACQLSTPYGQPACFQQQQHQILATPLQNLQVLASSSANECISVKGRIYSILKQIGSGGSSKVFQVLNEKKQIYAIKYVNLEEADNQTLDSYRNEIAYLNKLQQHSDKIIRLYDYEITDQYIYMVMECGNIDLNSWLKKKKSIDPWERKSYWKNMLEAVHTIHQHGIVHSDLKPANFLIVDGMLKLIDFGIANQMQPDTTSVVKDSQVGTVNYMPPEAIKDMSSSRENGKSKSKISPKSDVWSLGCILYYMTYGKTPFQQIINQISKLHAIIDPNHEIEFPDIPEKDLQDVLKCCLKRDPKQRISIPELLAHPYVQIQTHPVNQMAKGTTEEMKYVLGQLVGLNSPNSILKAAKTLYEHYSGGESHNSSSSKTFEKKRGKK
# [4] = molecular target: T1, Dual specificity protein kinase TTK (Homo sapiens); experiment: Inhibition of Mps1/TTK in human CAL51 cells assessed as reduction in centrosome amplification during S-phase by measuring decrease in cells with more than four centrioles incubated for 24 hrs followed by BrdU incorporation during last 4 hrs of incubation; assay type: cell-based
# [5] = molecular target: Phosphatidylinositol 4,5-bisphosphate 3-kinase catalytic subunit beta isoform (Homo sapiens, UniProt P42338); experiment: Inhibition of PI3Kbeta (unknown origin)
# CAL-51 [6] = experiment: Antitumor activity against human CAL51 cells xenografted in athymic nude mouse assessed as reduction in tumor growth at 10 mg/kg, ip administered once daily measured after 3 to 7 weeks; assay type: functional, organism-based
# Mus musculus [7] = experiment: Toxicity in athymic nude mouse assessed as body weight at 10 mg/kg, ip administered once daily for 7 weeks measured at post last dose (reference value: 20 to 26 g); assay type: organism-based; conditions: in vivo, 1176 h
# [8] = Solubility of the compound in DMSO by absorption spectrometric method; assay type: physicochemical
# HCC1937 = experiment: Antiproliferative activity against human HCC1937 cells assessed as reduction in cell viability after 5 to 7 days by CellTiter 96 aqueous solution assay; assay type: functional, cell-based
# [9] = molecular target: T1, Dual specificity protein kinase TTK (Homo sapiens); conditions: 1 uM
# CAL-51 [10] = experiment: Antitumor activity against human CAL51 cells xenografted in athymic nude mouse assessed as reduction in tumor weight at 10 mg/kg, ip administered once daily measured after 7 weeks; assay type: functional, organism-based
# CAMA-1 = experiment: Antiproliferative activity against human CAMA1 cells assessed as reduction in cell viability after 5 to 7 days by CellTiter 96 aqueous solution assay; assay type: functional, cell-based
# [11] = molecular target: Non-receptor tyrosine-protein kinase TYK2 (Homo sapiens, UniProt P29597); experiment: Inhibition of human TYK2 using KKSRGDYMTMQIG as substrate in presence of [gamma-32P]ATP
# [12] = AUC in ICR mouse at 50 mg/kg, ip by LC-MS/MS analysis; assay type: ADME, organism-based; conditions: in vivo
# [13] = molecular target: T1, Dual specificity protein kinase TTK (Homo sapiens); conditions: 1 uM; remark: listed apart in the source
# T47D = experiment: Antiproliferative activity against human T47D cells assessed as reduction in cell viability after 5 to 7 days by CellTiter 96 aqueous solution assay; assay type: functional, cell-based
# [14] = molecular target: T1, Dual specificity protein kinase TTK (Homo sapiens); experiment: Inhibition of Mps1/TTK in human CAL51 cells assessed as spindle assembly checkpoint arrest in response to nocodazole by measuring decrease in cyclin B level up to 10 uM by immunoblotting method; assay type: cell-based
# [15] = molecular target: Tyrosine-protein kinase SYK (Homo sapiens, UniProt P43405); experiment: Inhibition of human SYK using poly[Glu:Tyr] (4:1) as substrate in presence of [gamma-32P]ATP
# [16] = Systemic clearance in ICR mouse at 20 mg/kg, iv by LC-MS/MS analysis; assay type: ADME, organism-based; conditions: in vivo
# CAL-51 [17] = experiment: Antiproliferative activity against human CAL51 cells assessed as reduction in cell viability after 5 to 7 days by CellTiter 96 aqueous solution assay; assay type: functional, cell-based
# [18] = Solubility of the compound in 10:5:10:75 DMSO/Tween80/PEG400/saline by absorption spectrometric method; assay type: physicochemical
# BT-20 = experiment: Antiproliferative activity against human BT20 cells assessed as reduction in cell viability after 5 to 7 days by CellTiter 96 aqueous solution assay; assay type: functional, cell-based
# MCF7 = experiment: Antiproliferative activity against human MCF7 cells assessed as reduction in cell viability after 5 to 7 days by CellTiter 96 aqueous solution assay; assay type: functional, cell-based
# AU565 = experiment: Antiproliferative activity against human AU565 cells assessed as reduction in cell viability after 5 to 7 days by CellTiter 96 aqueous solution assay; assay type: functional, cell-based
# CAL-51 [19] = experiment: Cytotoxicity against human CAL51 cells assessed as reduction in cell viability at 25 uM after 24 hrs by BrdU incorporation assay relative to control; assay type: functional
# BT-549 = experiment: Antiproliferative activity against human BT549 cells assessed as reduction in cell viability after 5 to 7 days by CellTiter 96 aqueous solution assay; assay type: functional, cell-based
# BT-474 = experiment: Antiproliferative activity against human BT474 cells assessed as reduction in cell viability after 5 to 7 days by CellTiter 96 aqueous solution assay; assay type: functional, cell-based
# MDA-MB-468 = experiment: Antiproliferative activity against human MDA-MB-468 cells assessed as reduction in cell viability after 5 to 7 days by CellTiter 96 aqueous solution assay; assay type: functional, cell-based
# MDA-MB-436 = experiment: Antiproliferative activity against human MDA-MB-436 cells assessed as reduction in cell viability after 5 to 7 days by CellTiter 96 aqueous solution assay; assay type: functional, cell-based
# MDA-MB-453 = experiment: Antiproliferative activity against human MDA-MB-453 cells assessed as reduction in cell viability after 5 to 7 days by CellTiter 96 aqueous solution assay; assay type: functional, cell-based
# [20] = molecular target: T1, Dual specificity protein kinase TTK (Homo sapiens); experiment: Inhibition of Mps1/TTK in human MDA-MB-468 cells assessed as cell cycle arrest at mitotic stage by measuring decrease in spindle assembly checkpoint arrest in response to nocodazole by DAPI/Hoechst staining based assay
# Sequence of Non-receptor tyrosine-protein kinase TYK2 (P29597 whole entry): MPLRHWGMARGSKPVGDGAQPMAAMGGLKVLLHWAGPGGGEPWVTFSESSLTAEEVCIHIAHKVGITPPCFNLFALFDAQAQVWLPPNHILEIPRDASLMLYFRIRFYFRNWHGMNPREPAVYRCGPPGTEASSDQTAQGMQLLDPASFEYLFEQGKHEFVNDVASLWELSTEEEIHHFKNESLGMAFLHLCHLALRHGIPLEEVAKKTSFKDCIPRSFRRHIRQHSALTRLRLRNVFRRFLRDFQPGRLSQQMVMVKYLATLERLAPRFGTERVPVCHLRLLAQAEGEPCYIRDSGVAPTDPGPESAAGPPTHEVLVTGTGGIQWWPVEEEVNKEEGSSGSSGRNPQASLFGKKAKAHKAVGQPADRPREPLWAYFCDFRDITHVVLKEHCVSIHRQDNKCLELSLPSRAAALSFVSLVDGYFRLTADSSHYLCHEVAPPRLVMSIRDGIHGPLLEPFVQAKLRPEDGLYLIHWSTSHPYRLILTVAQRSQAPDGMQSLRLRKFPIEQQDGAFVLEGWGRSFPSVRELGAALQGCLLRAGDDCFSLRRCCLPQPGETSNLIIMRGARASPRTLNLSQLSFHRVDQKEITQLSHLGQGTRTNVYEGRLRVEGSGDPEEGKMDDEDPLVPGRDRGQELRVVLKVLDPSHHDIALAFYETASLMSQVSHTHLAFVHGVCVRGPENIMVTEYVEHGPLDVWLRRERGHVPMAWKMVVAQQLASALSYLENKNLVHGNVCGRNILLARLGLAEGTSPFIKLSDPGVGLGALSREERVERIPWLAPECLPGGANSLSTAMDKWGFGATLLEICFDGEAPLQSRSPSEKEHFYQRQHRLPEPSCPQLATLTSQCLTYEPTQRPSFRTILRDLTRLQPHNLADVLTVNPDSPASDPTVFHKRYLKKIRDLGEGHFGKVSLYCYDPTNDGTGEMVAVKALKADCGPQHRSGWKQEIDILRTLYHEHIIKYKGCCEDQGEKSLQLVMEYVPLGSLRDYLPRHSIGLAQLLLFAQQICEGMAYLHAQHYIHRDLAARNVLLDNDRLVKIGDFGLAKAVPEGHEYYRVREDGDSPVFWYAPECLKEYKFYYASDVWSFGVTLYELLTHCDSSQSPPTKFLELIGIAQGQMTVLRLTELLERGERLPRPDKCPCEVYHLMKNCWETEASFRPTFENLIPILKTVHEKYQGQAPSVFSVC
# Sequence of Phosphatidylinositol 4,5-bisphosphate 3-kinase catalytic subunit beta isoform (P42338 whole entry, canonical isoform): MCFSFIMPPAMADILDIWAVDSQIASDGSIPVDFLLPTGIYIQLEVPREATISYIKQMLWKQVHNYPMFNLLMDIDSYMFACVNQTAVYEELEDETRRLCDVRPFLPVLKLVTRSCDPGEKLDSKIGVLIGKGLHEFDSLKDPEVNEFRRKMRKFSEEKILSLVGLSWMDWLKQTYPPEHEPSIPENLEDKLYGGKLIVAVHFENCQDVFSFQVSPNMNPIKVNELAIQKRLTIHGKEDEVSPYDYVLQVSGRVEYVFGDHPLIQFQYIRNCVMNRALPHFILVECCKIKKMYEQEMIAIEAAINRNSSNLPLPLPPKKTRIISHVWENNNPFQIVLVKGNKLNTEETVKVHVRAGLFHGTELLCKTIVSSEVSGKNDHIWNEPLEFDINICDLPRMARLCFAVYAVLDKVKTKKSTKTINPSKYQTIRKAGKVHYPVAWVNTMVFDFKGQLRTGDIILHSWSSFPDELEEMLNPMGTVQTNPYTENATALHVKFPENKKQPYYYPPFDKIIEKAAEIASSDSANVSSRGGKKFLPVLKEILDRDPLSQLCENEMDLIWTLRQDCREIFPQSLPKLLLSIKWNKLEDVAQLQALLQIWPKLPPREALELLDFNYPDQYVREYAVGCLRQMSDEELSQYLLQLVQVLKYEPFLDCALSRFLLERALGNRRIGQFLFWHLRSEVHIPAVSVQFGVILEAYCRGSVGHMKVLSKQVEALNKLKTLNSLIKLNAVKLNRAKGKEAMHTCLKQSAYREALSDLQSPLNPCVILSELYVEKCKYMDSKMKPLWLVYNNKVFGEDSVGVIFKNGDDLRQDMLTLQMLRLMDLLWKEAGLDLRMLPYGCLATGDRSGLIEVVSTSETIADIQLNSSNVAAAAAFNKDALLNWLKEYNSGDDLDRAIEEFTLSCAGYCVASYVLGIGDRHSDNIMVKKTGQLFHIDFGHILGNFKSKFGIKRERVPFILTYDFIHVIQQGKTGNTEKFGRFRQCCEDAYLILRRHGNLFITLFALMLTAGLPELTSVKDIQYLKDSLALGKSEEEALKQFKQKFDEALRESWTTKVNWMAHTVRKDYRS
structure (smiles),measurement,setting,value
COc1cc(N2CCOCC2)ccc1Nc1nc(NC2CCCCC2)c2cc[nH]c2n1,IC50,MDA-MB-231,> 10 µM
same,IC50,Hs-578T,> 10 µM
same,IC50,SK-BR-3,0.4 µM
same,half-life,[1],2.28 h
same,Activity,Mus musculus [2],24 g
same,inhibition,[3],Dose-dependent effect
same,inhibition,[4],Dose-dependent effect
same,IC50,[5],40.6 µM
same,TGI,CAL-51 [6],Active
same,Activity,Mus musculus [7],26 g
same,solubility,[8],53400 µg/mL
same,IC50,HCC1937,1.02 µM
same,inhibition,[9],Active
same,Activity,CAL-51 [10],Active
same,IC50,CAMA-1,0.6 µM
same,IC50,[11],132 µM
same,AUC,[12],8460 ng·h/mL
same,inhibition,[13],Active
same,IC50,T47D,> 10 µM
same,inhibition,[14],Active
same,IC50,[15],153 µM
same,clearance,[16],292 mL/min/kg
same,IC50,CAL-51 [17],0.55 µM
same,solubility,[18],5000 µg/mL
same,IC50,BT-20,0.37 µM
same,IC50,MCF7,> 10 µM
same,IC50,AU565,0.95 µM
same,Activity,CAL-51 [19],70%
COc1cc(N2CCOCC2)ccc1Nc1nc(Nc2ccccc2S(=O)(=O)C(C)C)c2cc[nH]c2n1,IC50,MDA-MB-231,> 10 µM
same,IC50,BT-549,1.3 µM
same,IC50,BT-474,0.29 µM
same,IC50,Hs-578T,> 10 µM
same,IC50,SK-BR-3,0.47 µM
same,IC50,MDA-MB-468,0.32 µM
same,IC50,MDA-MB-436,1.23 µM
same,IC50,HCC1937,1.1 µM
same,IC50,CAMA-1,0.65 µM
same,IC50,T47D,> 10 µM
same,IC50,CAL-51 [17],0.3 µM
same,IC50,BT-20,1.71 µM
same,IC50,MDA-MB-453,> 10 µM
same,IC50,MCF7,0.3 µM
same,IC50,AU565,> 10 µM
COc1ccccc1Nc1nc(Nc2ccccc2S(=O)(=O)C(C)C)c2cc[nH]c2n1,IC50,MDA-MB-231,0.4 µM
same,IC50,BT-549,2.19 µM
same,IC50,BT-474,0.47 µM
same,IC50,Hs-578T,> 10 µM
same,IC50,SK-BR-3,0.75 µM
same,IC50,MDA-MB-468,1.57 µM
same,IC50,MDA-MB-436,5.23 µM
same,IC50,HCC1937,0.84 µM
same,IC50,CAMA-1,0.84 µM
same,IC50,T47D,0.33 µM
same,IC50,CAL-51 [17],1.26 µM
same,IC50,BT-20,0.06 µM
same,IC50,MDA-MB-453,> 10 µM
same,IC50,MCF7,0.35 µM
same,IC50,AU565,> 10 µM
COc1cc(N2CCC(O)CC2)ccc1Nc1nc(Nc2ccccc2S(=O)(=O)C(C)C)c2cc[nH]c2n1,inhibition,[20],Dose-dependent effect
same,IC50,MDA-MB-231,> 10 µM
same,IC50,BT-549,0.81 µM
same,IC50,BT-474,> 10 µM
same,IC50,Hs-578T,> 10 µM
same,IC50,SK-BR-3,> 10 µM
same,IC50,MDA-MB-468,0.19 µM
same,inhibition,[3],Dose-dependent effect
same,IC50,MDA-MB-436,0.9 µM
same,inhibition,[4],Dose-dependent effect
same,IC50,HCC1937,0.73 µM
same,IC50,CAMA-1,0.36 µM
same,IC50,T47D,> 10 µM
same,inhibition,[14],Active
same,IC50,CAL-51 [17],0.23 µM
same,IC50,BT-20,0.35 µM
same,IC50,MDA-MB-453,0.82 µM
same,IC50,MCF7,0.44 µM
same,IC50,AU565,> 10 µM
COc1cc(N2CCC(O)CC2)ccc1Nc1cc(Nc2ccccc2S(=O)(=O)C(C)C)c2cc[nH]c2n1,IC50,MDA-MB-231,> 10 µM
same,IC50,BT-549,1.73 µM
same,IC50,BT-474,> 10 µM
same,IC50,Hs-578T,> 10 µM
same,IC50,SK-BR-3,> 10 µM
same,IC50,MDA-MB-468,1.85 µM
same,IC50,MDA-MB-436,> 10 µM
same,IC50,HCC1937,> 10 µM
same,IC50,CAMA-1,> 10 µM
same,IC50,T47D,> 10 µM
same,IC50,CAL-51 [17],2.92 µM
same,IC50,BT-20,> 10 µM
same,IC50,MDA-MB-453,> 10 µM
same,IC50,MCF7,> 10 µM
same,IC50,AU565,> 10 µM
